system: MDA-MB-435; test: Antiproliferative activity against human MDA-MB-435 cells for 3 days by MTT assay; settings: MDA-MB-435, 72 h

IC50	Structure (SMILES)
94.7 µM	CNCCN(C)Cc1c[nH]nc1-c1ccc(O[C@H]2C[C@H](OCCC3CCOCC3)C2)cc1

system: MDA-MB-435; test: Antiproliferative activity against human MDA-MB-435 cells for 5 days by MTT assay; settings: MDA-MB-435, 120 h

IC50	Structure (SMILES)
90.4 µM	CNCCN(C)Cc1c[nH]nc1-c1ccc(O[C@H]2C[C@H](OCCC3CCOCC3)C2)cc1

system: MDA-MB-435; test: Antiproliferative activity against human MDA-MB-435 cells for 7 days by MTT assay; settings: MDA-MB-435, 168 h

IC50	Structure (SMILES)
1.1 µM	CNCCN(C)Cc1c[nH]nc1-c1ccc(O[C@H]2C[C@H](OCCC3CCOCC3)C2)cc1

system: HCC827; test: Antiproliferative activity against human HCC827 cells for 3 days by MTT assay; settings: HCC827, 72 h

IC50	Structure (SMILES)
> 100 µM	CNCCN(C)Cc1c[nH]nc1-c1ccc(O[C@H]2C[C@H](OCCC3CCOCC3)C2)cc1

system: HCC827; test: Antiproliferative activity against human HCC827 cells for 5 days by MTT assay; settings: HCC827, 120 h

IC50	Structure (SMILES)
8.57 µM	CNCCN(C)Cc1c[nH]nc1-c1ccc(O[C@H]2C[C@H](OCCC3CCOCC3)C2)cc1

system: HCC827; test: Antiproliferative activity against human HCC827 cells for 7 days by MTT assay; settings: HCC827, 168 h

IC50	Structure (SMILES)
4.15 µM	CNCCN(C)Cc1c[nH]nc1-c1ccc(O[C@H]2C[C@H](OCCC3CCOCC3)C2)cc1

system: HCC827; test: Induction of apoptosis in human HCC827 cells assessed as early apoptotic cells at 40 uM for 3 days by Annexin V and PI staining based flow cytometric analysis (reference value: 0.44%); assay type: functional; settings: time 3 day

Structure (SMILES)	Activity
CNCCN(C)Cc1c[nH]nc1-c1ccc(O[C@H]2C[C@H](OCCC3CCOCC3)C2)cc1	3.11%

system: HCC827; test: Induction of apoptosis in human HCC827 cells assessed as late apoptotic cells at 40 uM for 3 days by Annexin V and PI staining based flow cytometric analysis (reference value: 0.05%); assay type: functional; settings: time 3 day

Structure (SMILES)	Activity
CNCCN(C)Cc1c[nH]nc1-c1ccc(O[C@H]2C[C@H](OCCC3CCOCC3)C2)cc1	6.69%

system: HCC827; test: Induction of apoptosis in human HCC827 cells assessed as necrotic cells at 40 uM for 3 days by Annexin V and PI staining based flow cytometric analysis (reference value: 0.65%); assay type: functional; settings: time 3 day

Structure (SMILES)	Activity
CNCCN(C)Cc1c[nH]nc1-c1ccc(O[C@H]2C[C@H](OCCC3CCOCC3)C2)cc1	3.65%

system: MDA-MB-435; test: Induction of apoptosis in human MDA-MB-435 cells assessed as early apoptotic cells at 40 uM for 3 days by Annexin V and PI staining based flow cytometric analysis (reference value: 0.38%); assay type: functional; settings: time 3 day

Structure (SMILES)	Activity
CNCCN(C)Cc1c[nH]nc1-c1ccc(O[C@H]2C[C@H](OCCC3CCOCC3)C2)cc1	0.93%

system: MDA-MB-435; test: Induction of apoptosis in human MDA-MB-435 cells assessed as late apoptotic cells at 40 uM for 3 days by Annexin V and PI staining based flow cytometric analysis (reference value: 0.45%); assay type: functional; settings: time 3 day

Structure (SMILES)	Activity
CNCCN(C)Cc1c[nH]nc1-c1ccc(O[C@H]2C[C@H](OCCC3CCOCC3)C2)cc1	2.82%

system: MDA-MB-435; test: Induction of apoptosis in human MDA-MB-435 cells assessed as necrotic cells at 40 uM for 3 days by Annexin V and PI staining based flow cytometric analysis (reference value: 0.61%); assay type: functional; settings: time 3 day

Structure (SMILES)	Activity
CNCCN(C)Cc1c[nH]nc1-c1ccc(O[C@H]2C[C@H](OCCC3CCOCC3)C2)cc1	0.64%

target: Protein arginine N-methyltransferase 6 (Homo sapiens, UniProt Q96LA8); settings: not given
Sequence (Q96LA8 whole entry): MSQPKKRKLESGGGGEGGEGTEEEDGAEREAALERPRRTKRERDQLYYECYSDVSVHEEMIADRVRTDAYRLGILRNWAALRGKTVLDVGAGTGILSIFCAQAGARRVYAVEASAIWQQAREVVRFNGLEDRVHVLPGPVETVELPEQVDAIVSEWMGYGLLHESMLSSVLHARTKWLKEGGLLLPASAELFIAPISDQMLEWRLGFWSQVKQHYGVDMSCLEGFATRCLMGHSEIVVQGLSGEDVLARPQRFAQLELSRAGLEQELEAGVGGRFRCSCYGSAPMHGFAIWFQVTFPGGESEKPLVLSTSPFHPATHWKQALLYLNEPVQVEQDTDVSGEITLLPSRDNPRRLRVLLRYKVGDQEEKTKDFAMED

IC50	Structure (SMILES)
0.0071 µM	CNCCN(C)Cc1c[nH]nc1-c1ccc(O[C@H]2C[C@H](OCCC3CCOCC3)C2)cc1
> 5 µM	CN(CCN)Cc1cncc(-c2cccc(NS(=O)(=O)c3cccs3)c2)c1
5.24 µM	CN(CCN)Cc1cncc(-c2ccc(CN3CCOCC3)cc2)c1
> 5 µM	CNCCN(C)Cc1cncc(-c2cccc(NS(=O)(=O)c3ccc(C)cc3)c2)c1
0.684 µM	CNCCN(C)Cc1cncc(-c2cccc(NS(=O)(=O)C(F)(F)F)c2)c1
2.57 µM	CNCCN(C)Cc1cncc(-c2cccc(NS(=O)(=O)c3cccs3)c2)c1
> 5 µM	CNCCN(C)Cc1cncc(-c2cccc(N(S(=O)(=O)c3ccc(C(F)(F)F)cc3)S(=O)(=O)c3ccc(C(F)(F)F)cc3)c2)c1
> 5 µM	CNCCN(C)Cc1cncc(-c2cccc(NS(=O)(=O)c3ccc([N+](=O)[O-])cc3)c2)c1
> 5 µM	CN(CCN)Cc1cncc(-c2cccc(NS(=O)(=O)c3ccc([N+](=O)[O-])cc3)c2)c1
> 5 µM	NCCNC(=O)c1cncc(-c2ccc(NS(=O)(=O)C3CC3)cc2)c1
2.97 µM	CN(CCN)Cc1cncc(-c2cccc(NS(=O)(=O)C3CC3)c2)c1
6.36 µM	CN(CCN)Cc1cncc(-c2ccc(OC(F)(F)F)cc2)c1
1.06 µM	CNCCN(C)Cc1cc(-c2ccc(NS(=O)(=O)C3CC3)cc2)ccn1
0.213 µM	CNCCN(C)Cc1cncc(-c2ccc(NS(=O)(=O)C(F)(F)F)cc2)c1
> 5 µM	CNCCN(C)C(=O)c1cncc(-c2ccc(NS(=O)(=O)C3CC3)cc2)c1
2.83 µM	CNCCN(C)Cc1cncc(-c2cccc(NS(=O)(=O)N(C)C)c2)c1
4.4 µM	CN(CCN)Cc1cncc(-c2cccc(NS(=O)(=O)N(C)C)c2)c1
> 5 µM	CN(CCN)Cc1cncc(-c2cccc(NS(=O)(=O)c3cnn(C)c3)c2)c1

IC50	Structure (SMILES)
1.35 µM	CNCCN(C)Cc1cncc(-c2ccc(NC(=O)N3CCOCC3)cc2)c1
1.54 µM	CNCCN(C)Cc1cncc(-c2cccc(NC(=O)N3CCOCC3)c2)c1
> 10 µM	COc1cc(OC)cc(-c2cncc(CN(C)CCN)c2)c1
> 5 µM	CNCCN(C)Cc1cncc(-c2cccc(NS(=O)(=O)c3ccc(C(F)(F)F)cc3)c2)c1
> 5 µM	CNCCNC(=O)c1cncc(-c2ccc(NS(=O)(=O)C3CC3)cc2)c1
0.03 µM	CNCCN(C)Cc1ccnc(-c2ccc(NS(=O)(=O)C3CC3)cc2)c1
3.09 µM	CNCCN(C)Cc1ccncc1-c1ccc(NS(=O)(=O)C2CC2)cc1
> 5 µM	CN(CCN)C(=O)c1cncc(-c2ccc(NS(=O)(=O)C3CC3)cc2)c1
1.05 µM	CNCCN(C)Cc1cncc(-c2cccc(NS(=O)(=O)c3ccccc3C)c2)c1
1.8 µM	CN(CCN)Cc1cncc(-c2ccc(NS(=O)(=O)C3CC3)cc2)c1
> 5 µM	CNCCN(C)Cc1cncc(-c2cccc(N(S(=O)(=O)c3ccccc3C)S(=O)(=O)c3ccccc3C)c2)c1
1.59 µM	CNCCN(C)Cc1cncc(-c2cccc(NC(=O)C(C)C)c2)c1
> 5 µM	CNCCN(C)Cc1cncc(-c2cccc(NS(=O)(=O)c3cnn(C)c3)c2)c1
> 5 µM	CNCCN(C)Cc1cncc(-c2cccc(NS(=O)(=O)Cc3ccccc3)c2)c1
> 5 µM	CNCCN(C)C(=O)c1cncc(-c2cccc(NS(=O)(=O)C3CC3)c2)c1
0.262 µM	CNCCN(C)Cc1cncc(-c2cccc(NS(=O)(=O)C3CC3)c2)c1
2.18 µM	Nc1ncnc2c1ncn2[C@@H]1O[C@H](CSCC[C@H](N)C(=O)O)[C@@H](O)[C@H]1O [S-ADENOSYLHOMOCYSTEINE]
